SMILES	melting point
Cc1c(S(=O)(=O)Nc2cccc3ccn(CCN4CCCC4)c23)sc2ccc(Cl)cc12 [Example 5g, 5-chloro-3-methyl-N-(1-(2-(pyrrolidin-1-yl)ethyl)-1H-indol-7-yl)-benzo[b]thiophen-2-sulfonamide]	82 to 85 °C
CCN(CC)CCc1c[nH]c2ccc(NS(=O)(=O)c3ccc(Cl)s3)cc12 [Example 6c, N-[3-(2-diethylaminoethyl)-1H-indol-5-yl]-5-chlorothiophene-2-sulphonamide]	180 to 181 °C
CN(C)CCn1ccc2cc(NS(=O)(=O)c3cccc4cccnc34)ccc21 [Example 6e, N-[1-(2-dimethylaminoethyl)-1H-indole-5-yl]-quinoline-8-sulfonamide]	161 to 164 °C
O=S(=O)(Nc1cccc2ccn(CCN3CCCC3)c12)c1cccc2ccccc12 [Example 6g, N-(1-(2-(pyrrolidin-1-yl)ethyl)-1H-indol-7-yl)naphthalene-1-sulfonamide]	196 to 199 °C
Cc1c(S(=O)(=O)Nc2ccc3[nH]cc(CCN(C)C)c3c2)sc2ccc(Cl)cc12 [Example 7c, N-[3-(2-dimethylaminoethyl)-1H-indol-5-yl]-5-chloro-3-methylbenzo[b]thiophene-2-sulphonamide]	226 to 227 °C
CN(C)CCn1ccc2c(NS(=O)(=O)c3cc(Cl)cc(Cl)c3)cccc21 [Example 7d, N-[1-(2-dimethylaminoethyl)-1H-indole-4-yl]-3,5-dichlorobenzenesulfonamide]	113 to 118 °C
CN(C)CCn1ccc2cc(NS(=O)(=O)c3ccc(Oc4ccccc4)cc3)ccc21 [Example 7e, N-[1-(2-dimethylaminoethyl)-1H-indole-5-yl]-4-phenoxybenzenesulfonamide]	138 to 140 °C
CN(C)CCc1c[nH]c2ccc(NS(=O)(=O)c3cccc4ccccc34)cc12 [Example 8c, N-[3-(2-dimethylaminoethyl)-1H-indol-5-yl]naphthalene-1-sulphonamide]	203 to 205 °C
CN(C)CCn1ccc2c(NS(=O)(=O)c3c(Cl)nc4sccn34)cccc21 [Example 8d, 6-chloro-N-[1-(2-dimethylaminoethyl)-1H-indol-4-yl]-imidazo[2,1-b]thiazole-5-sulfonamide]	95 to 100 °C
Cc1ccc(S(=O)(=O)Nc2ccc3c(ccn3CCN(C)C)c2)cc1 [Example 8e, N-[1-(2-dimethylaminoethyl)-1H-indole-5-yl]-4-methylbenzenesulfonamide]	126 to 128 °C
CN(C)CCn1ccc2ccc(NS(=O)(=O)c3cc(Cl)cc(Cl)c3)cc21 [Example 8f, N-[1-(2-Dimethylaminoethyl)-1H-indol-6-yl]-3,5-dichlorobenzenesulfonamide]	150 to 159 °C
O=S(=O)(CCc1cccc2ccccc12)Nc1cccc2ccn(CCN3CCCC3)c12 [Example 8g, 2-(naphth-1-yl)-N-(1-(2-(pyrrolidin-1-yl)ethyl)-1H-indol-7-yl)ethansulfonamide]	46 to 49 °C
CN(C)CCn1ccc2cc(NS(=O)(=O)c3ccc(Cl)s3)ccc21 [Example 9e, N-[1-(2-dimethylaminoethyl)-1H-indole-5-yl]-5-chlorothiophene-2-sulfonamide]	145 to 147 °C
CN(C)CCn1ccc2cc(NS(=O)(=O)c3c(Cl)nc4sccn34)ccc21 [Example 11e, N-[1-(2-dimethylaminoethyl)-1H-indole-5-yl]-6-chloroimidazo[2,1-b]thiazole-5-sulfonamide]	50 to 52 °C
CN1CCC(c2c[nH]c3ccc(NS(=O)(=O)c4cccc5ccccc45)cc23)CC1 [Example 12c, N-[3-(1-methylpiperidin-4-yl)-1H-indol-5-yl]naphthalene-1-sulphonamide]	254 to 256 °C
CN(C)CCn1ccc2cc(NS(=O)(=O)c3cc(Cl)cc(Cl)c3)ccc21 [Example 12e, N-[1-(2-dimethylaminoethyl)-1H-indole-5-yl]-3,5-dichlorobenzenesulfonamide]	124 to 126 °C
O=S(=O)(Nc1ccc2ccn(CCN3CCCC3)c2c1)c1c(Cl)nc2sccn12 [Example 12f, 6-Chloro-N-[1-[2-(pyrrolidin-1-yl)ethyl]-1H-indol-6-yl]-imidazo[2,1-b]thiazole-5-sulfonamide]	53 to 57 °C
CN1CCC(c2c[nH]c3ccc(NS(=O)(=O)c4cccc5ccccc45)cc23)CC1.Cl [Example 13c, N-[3-(1-methylpiperidin-4-yl)-1H-indol-5-yl]naphthalene-1-sulphonamide hydrochloride]	212 °C (dec.)
CN(C)CCn1ccc2cc(NS(=O)(=O)c3cccc(Br)c3)ccc21 [Example 13e, N-[1-(2-dimethylaminoethyl)-1H-indole-5-yl]-3-bromobenzenesulfonamide]	114 to 116 °C
O=S(=O)(Nc1ccc2ccn(CCN3CCCC3)c2c1)c1ccc(-c2ccccc2)cc1 [Example 13f, 4-Phenyl-N-(1-(2-(pyrrolidin-1-yl)ethyl)-1H-indol-6-yl)-benzenesulfonamide]	178 to 181 °C

SMILES	melting point
CN1CCC(c2c[nH]c3ccc(NS(=O)(=O)c4ccc(Cl)s4)cc23)CC1 [Example 14c, N-[3-(1-methylpiperidin-4-yl)-1H-indol-5-yl]-5-chlorothiophene-2-sulphonamide]	284 °C (dec.)
CN(C)CCn1ccc2cc(NS(=O)(=O)c3cccc([N+](=O)[O-])c3)ccc21 [Example 14e, N-[1-(2-dimethylaminoethyl)-1H-indole-5-yl]-3-nitrobenzenesulfonamide]	138 to 140 °C
CN1CCC(c2c[nH]c3ccc(NS(=O)(=O)c4ccc(-c5ccccc5)cc4)cc23)CC1 [Example 15c, N-[3-(1-methylpiperidin-4-yl)-1H-indol-5-yl]-4-phenylbenzenesulphonamide]	247 to 248 °C
CN(C)CCn1ccc2cc(NS(=O)(=O)Cc3ccccc3)ccc21 [Example 15e, N-[1-(2-dimethylaminoethyl)-1H-indole-5-yl]-1-phenylmethanesulfonamide]	163 to 166 °C
O=S(=O)(Nc1ccc2ccn(CCN3CCCC3)c2c1)c1ccc(Oc2ccccc2)cc1 [Example 15f, 4-Phenoxy-N-(1-(2-(pyrrolidin-1-yl)ethyl)-1H-indol-6-yl)-benzenesulfonamide]	59 to 62 °C
CN1CCC(c2c[nH]c3ccc(NS(=O)(=O)c4cccc5cccnc45)cc23)CC1 [Example 16c, N-[3-(1-methylpiperidin-4-yl)-1H-indol-5-yl]quinoline-8-sulphonamide]	280 °C (dec.)
O=S(=O)(Nc1ccc2c(ccn2CCN2CCCC2)c1)c1ccc2ccccc2c1 [Example 16e, N-[1-(2-pyrrolidine-1-yl-ethyl)-1H-indole-5-yl]-naphthalene-2-sulfonamide]	138 to 140 °C
CCN(CC)CCc1c[nH]c2ccc(NS(=O)(=O)c3ccc4ccccc4c3)cc12 [Example 17c, N-[3-(2-diethylaminoethyl)-1H-indol-5-yl]naphthalene-2-sulphonamide]	172 to 173 °C
O=S(=O)(Nc1ccc2c(ccn2CCN2CCCC2)c1)c1cccc2ccccc12 [Example 17e, N-[1-(2-pyrrolidine-1-yl-ethyl)-1H-indole-5-yl]-naphthalene-1-sulfonamide]	186 to 189 °C
Cc1c(S(=O)(=O)Nc2ccc3c(ccn3CCN3CCCC3)c2)sc2ccc(Cl)cc12 [Example 18e, N-[1-(2-pyrrolidine-1-yl-ethyl)-1H-indole-5-yl]-5-chloro-3-methylbenzo[b]thiophene-2-sulfonamide]	156 to 158 °C
Cc1c(S(=O)(=O)Nc2ccc3[nH]cc(CN4CCN(C)CC4)c3c2)sc2ccc(Cl)cc12 [Example 19c, N-[3-(4-methylpiperazin-1-yl)methyl-1H-indol-5-yl]-5-chloro-3-methylbenzo[b]thiophene-2-sulphonamide]	230 °C (dec.)
CN(C)CCn1ccc2cc(NS(=O)(=O)c3cc(Cl)c(Cl)s3)ccc21 [Example 20e, N-[1-(2-dimethylaminoethyl)-1H-indole-5-yl]-4,5-dichlorothiophene-2-sulfonamide]	120 to 123 °C
CC(=O)c1ccc(S(=O)(=O)Nc2ccc3c(ccn3CCN(C)C)c2)cc1 [Example 21e, N-[1-(2-dimethylaminoethyl)-1H-indole-5-yl]-4-acetylbenzenesulfonamide]	175 °C (dec.)
CN(C)CCn1ccc2cc(NS(=O)(=O)c3ccc(Br)cc3)ccc21 [Example 22e, N-[1-(2-dimethylaminoethyl)-1H-indole-5-yl]-4-bromobenzenesulfonamide]	114 to 117 °C
COc1ccc(S(=O)(=O)Nc2ccc3c(ccn3CCN(C)C)c2)cc1 [Example 23e, N-[1-(2-dimethylaminoethyl)-1H-indole-5-yl]-4-methoxybenzenesulfonamide]	141 to 144 °C
CN(C)CCn1ccc2cc(NS(=O)(=O)c3ccc([N+](=O)[O-])cc3)ccc21 [Example 25e, N-[1-(2-dimethylaminoethyl)-1H-indole-5-yl]-4-nitrobenzenesulfonamide]	60 to 64 °C
CN(C)CCn1ccc2cc(NS(=O)(=O)c3ccc(F)cc3)ccc21 [Example 26e, N-[1-(2-dimethylaminoethyl)-1H-indole-5-yl]-4-fluorobenzenesulfonamide]	138 to 140 °C
CCN(CC)CCn1ccc2cc(NS(=O)(=O)c3c(Cl)nc4sccn34)ccc21 [Example 27e, N-[1-(2-diethylaminoethyl)-1H-indole-5-yl]-6-chloroimidazo[2,1-b]thiazole-5-sulfonamide]	68 to 70 °C
Cc1c(S(=O)(=O)Nc2ccc3[nH]cc(CN(C)C)c3c2)sc2ccc(Cl)cc12 [Example 30c, N-[3-dimethylaminomethyl-1H-indol-5-yl]-5-chloro-3-methylbenzo[b]thiophene-2-sulphonamide]	148 to 152 °C
CCN(CC)CCn1ccc2cc(NS(=O)(=O)c3cccc4ccccc34)ccc21 [Example 30e, N-(1-(2-(diethylamino)ethyl)-1H-indol-5-yl)-naphthalene-1-sulfonamide]	133 to 135 °C
